# Marks after values point to notes of the source that are not given here.
# Assay: Proportions of kidney transplant recipients with subtherapeutic or supratherapeutic tacrolimus trough concentration
# Assay type: in vivo, human
# Description: All participants received oral, immediate-release tacrolimus (Prograf®; Astellas, Kerry, Ireland). According to Siriraj Hospital protocol, the initial dose (0.05 mg/kg every 12 h) of tacrolimus was started 2 days before KT (day − 2) and subsequently adjusted after KT based on efficacy and toxicity and to maintain morning trough concentrations of 7 to 10 ng/mL in standard risk patients and 10 to 12 ng/mL in high-risk patients during the first week after transplantation. Participants also received either mycophenolate mofetil (Cellcept®; F Hoffmann-La Roche Ltd, Basel, Switzerland or Immucept®; Intas Pharmaceuticals Ltd., Gujarat, India) or mycophenolate sodium (Myfortic®; Novartis Pharma Stein, Switzerland for Novartis AG, Basel, Switzerland) at the dosage equivalent to 2 g/day of mycophenolate mofetil. A tapered corticosteroid regimen was administered consisting of an intravenous bolus of 500 mg of methylprednisolone (Solu-medrol®; Novartis Pharma Stein, Switzerland for Novartis AG, Basel, Switzerland) on day 0, 250 mg on day 1, 125 mg on day 2 followed by 40 mg/day of prednisolone on day 4 after KT. The subsequent prednisolone doses were gradually tapered thereafter. Induction therapy with basiliximab (Simulect®; Novartis Pharma AG, Basel, Switzerland) was allowed.
# On day 7 post-KT, after the tacrolimus dosage was stable for at least 48 h, venous blood samples (5 mL) were collected at pre-dose and 1, 2, 4, 6, 8 and 12 h after the morning dose of tacrolimus. Samples were collected in EDTA tubes and stored at 4 degrees Celsius until analysis. Whole blood tacrolimus concentrations were determined within the same day of blood collection by using a chemiluminescent microparticle immunoassay method with […] system® i2000 (Abbott, Abbott Diagnostic, USA). The method was linear in the concentration range up to 30 ng/mL, the limits of quantification were 0.8 ng/mL, and the coefficient of variation of within run precision and between run precision were less than 10%. Mean recovery was 100 ± 10% according to the manufacturer’s information.
# The primary outcome measure was AUC/D at day 7 post-KT. […]
# [1] = day 1 post-transplantation, CYP3A5 expressers, diltiazem (n = 11)
# [2] = day 1 post-transplantation, CYP3A5 expressers, placebo (n = 12)
# [3] = day 1 post-transplantation, CYP3A5 non-expressers, diltiazem (n = 9)
# [4] = day 1 post-transplantation, CYP3A5 non-expressers, placebo (n = 8)
# [5] = day 1 post-transplantation, total (n = 40)
# [6] = day 3 post-transplantation, CYP3A5 expressers, diltiazem (n = 11)
# [7] = day 3 post-transplantation, CYP3A5 expressers, placebo (n = 12)
# [8] = day 3 post-transplantation, CYP3A5 non-expressers, diltiazem (n = 9)
# [9] = day 3 post-transplantation, CYP3A5 non-expressers, placebo (n = 8)
# [10] = day 3 post-transplantation, total (n = 40)
# [11] = day 5 post-transplantation, CYP3A5 expressers, diltiazem (n = 11)
# [12] = day 5 post-transplantation, CYP3A5 expressers, placebo (n = 12)
# [13] = day 5 post-transplantation, CYP3A5 non-expressers, diltiazem (n = 9)
# [14] = day 5 post-transplantation, CYP3A5 non-expressers, placebo (n = 8)
# [15] = day 5 post-transplantation, total (n = 40)
# [16] = day 7 post-transplantation, CYP3A5 expressers, diltiazem (n = 11)
# [17] = day 7 post-transplantation, CYP3A5 expressers, placebo (n = 12)
# [18] = day 7 post-transplantation, CYP3A5 non-expressers, diltiazem (n = 9)
# [19] = day 7 post-transplantation, CYP3A5 non-expressers, placebo (n = 8)
# [20] = day 7 post-transplantation, total (n = 40)
smiles,measurement,setting,value
C=CC[C@@H]1/C=C(\C)C[C@H](C)C[C@H](OC)[C@H]2O[C@@](O)(C(=O)C(=O)N3CCCC[C@H]3C(=O)O[C@H](/C(C)=C/[C@@H]3CC[C@@H](O)[C@H](OC)C3)[C@H](C)[C@@H](O)CC1=O)[C@H](C)C[C@@H]2OC [Tacrolimus],Trough concentration higher than 15 ng/mL,[1],1 (9.1) n (%)
same,Trough concentration lower than 5 ng/mL,[1],0 (0) n (%)
same,Trough concentration lower than the target range,[1],1 (9.1) n (%)
same,Trough concentration higher than 15 ng/mL,[2],0 (0) n (%)
same,Trough concentration lower than 5 ng/mL,[2],4 (33.3) n (%)
same,Trough concentration lower than the target range,[2],7 (58.3) n (%)
same,Trough concentration higher than 15 ng/mL,[3],3 (33.3) n (%)
same,Trough concentration lower than 5 ng/mL,[3],1 (11.1) n (%)
same,Trough concentration lower than the target range,[3],2 (22.2) n (%)
same,Trough concentration higher than 15 ng/mL,[4],3 (37.5) n (%)
same,Trough concentration lower than 5 ng/mL,[4],1 (12.5) n (%)
same,Trough concentration lower than the target range,[4],2 (25.0) n (%)
same,Trough concentration higher than 15 ng/mL,[5],7 (17.5) n (%)
same,Trough concentration lower than 5 ng/mL,[5],6 (15.0) n (%)
same,Trough concentration lower than the target range,[5],12 (30.0) n (%)
same,Trough concentration lower than 5 ng/mL,"day 3 post-transplantation, CYP3A5 expressers, diltiazem (EXdtz, n = 11)",1 (9.1) n (%)
same,Trough concentration lower than 5 ng/mL,"day 3 post-transplantation, CYP3A5 expressers, diltiazem (EXdtz, n = 11), listed as tacrolimus",one
same,Trough concentration higher than 15 ng/mL,[6],0 (0) n (%)
same,Trough concentration lower than the target range,[6],2 (18.2)^b n (%)
same,Trough concentration lower than 5 ng/mL,"day 3 post-transplantation, CYP3A5 expressers, placebo (EXplb, n = 12)",4 (33.3) n (%)
same,Trough concentration lower than 5 ng/mL,"day 3 post-transplantation, CYP3A5 expressers, placebo (EXplb, n = 12), listed as tacrolimus",four
same,Trough concentration higher than 15 ng/mL,[7],0 (0) n (%)
same,Trough concentration lower than the target range,[7],8 (66.7) n (%)
same,Trough concentration lower than 5 ng/mL,"day 3 post-transplantation, CYP3A5 non-expressers, diltiazem (NEdtz, n = 9)",0 (0) n (%)
same,Trough concentration lower than 5 ng/mL,"day 3 post-transplantation, CYP3A5 non-expressers, diltiazem (NEdtz, n = 9), listed as tacrolimus",none
same,Trough concentration higher than 15 ng/mL,[8],0 (0) n (%)
same,Trough concentration lower than the target range,[8],0 (0)^b n (%)
same,Trough concentration lower than 5 ng/mL,"day 3 post-transplantation, CYP3A5 non-expressers, placebo (NEplb, n = 8)",0 (0) n (%)
same,Trough concentration lower than 5 ng/mL,"day 3 post-transplantation, CYP3A5 non-expressers, placebo (NEplb, n = 8), listed as tacrolimus",none
same,Trough concentration higher than 15 ng/mL,[9],1 (12.5) n (%)
same,Trough concentration lower than the target range,[9],0 (0)^b n (%)
same,Trough concentration higher than 15 ng/mL,[10],1 (2.5) n (%)
same,Trough concentration lower than 5 ng/mL,[10],5 (12.5) n (%)
same,Trough concentration lower than the target range,[10],10 (25.0) n (%)
same,Trough concentration higher than 15 ng/mL,[11],0 (0) n (%)
same,Trough concentration lower than 5 ng/mL,[11],1 (9.1) n (%)
same,Trough concentration lower than the target range,[11],7 (63.6) n (%)
same,Trough concentration higher than 15 ng/mL,[12],0 (0) n (%)
same,Trough concentration lower than 5 ng/mL,[12],1 (8.3) n (%)
same,Trough concentration lower than the target range,[12],7 (58.3) n (%)
same,Trough concentration higher than 15 ng/mL,[13],0 (0) n (%)
same,Trough concentration lower than 5 ng/mL,[13],0 (0) n (%)
same,Trough concentration lower than the target range,[13],2 (22.2) n (%)
same,Trough concentration higher than 15 ng/mL,[14],0 (0) n (%)
same,Trough concentration lower than 5 ng/mL,[14],2 (25.0) n (%)
same,Trough concentration lower than the target range,[14],2 (25.0) n (%)
same,Trough concentration higher than 15 ng/mL,[15],0 (0) n (%)
same,Trough concentration lower than 5 ng/mL,[15],4 (10.0) n (%)
same,Trough concentration lower than the target range,[15],18 (45.0) n (%)
same,Trough concentration higher than 15 ng/mL,[16],0 (0) n (%)
same,Trough concentration lower than 5 ng/mL,[16],0 (0) n (%)
same,Trough concentration lower than the target range,[16],6 (54.5) n (%)
same,Trough concentration higher than 15 ng/mL,[17],0 (0) n (%)
same,Trough concentration lower than 5 ng/mL,[17],0 (0) n (%)
same,Trough concentration lower than the target range,[17],1 (8.3) n (%)
same,Trough concentration higher than 15 ng/mL,[18],0 (0) n (%)
same,Trough concentration lower than 5 ng/mL,[18],0 (0) n (%)
same,Trough concentration lower than the target range,[18],3 (33.3) n (%)
same,Trough concentration higher than 15 ng/mL,[19],0 (0) n (%)
same,Trough concentration lower than 5 ng/mL,[19],0 (0) n (%)
same,Trough concentration lower than the target range,[19],2 (25.0) n (%)
same,Trough concentration higher than 15 ng/mL,[20],0 (0) n (%)
same,Trough concentration lower than 5 ng/mL,[20],0 (0) n (%)
same,Trough concentration lower than the target range,[20],12 (30.0) n (%)

# Source: PMC9393165 (Scientific Reports, 2022)
